Experimental data reported in patent US7507730B2, “Substituted pyrazolo[1,5-a]pyrimidines as potassium channel activators” (Bristol-Myers Squibb Company, priority 2005, dated 2009).

Target: Kv1.5 (Homo sapiens, UniProt P22460)
Test: Kv1.5 inhibition assay (IKur inhibitor assay per cited references)
Type: cell-based
Settings: for Kv1.5% inhibition / inhibition at 0.3 µM: at 0.3 μM; for IC50: read-out: Kv1.5 IC50
Description: Assays to determine the degree of activity of a compound as an IKur inhibitor are well known in the art and are described in references such as J. Gen. Physiol. Apr.; 101 (4):513-43, and Br. J. Pharmacol. 1995 May; 115(2):267-74.

Kv1.5, sequence (P22460 whole entry): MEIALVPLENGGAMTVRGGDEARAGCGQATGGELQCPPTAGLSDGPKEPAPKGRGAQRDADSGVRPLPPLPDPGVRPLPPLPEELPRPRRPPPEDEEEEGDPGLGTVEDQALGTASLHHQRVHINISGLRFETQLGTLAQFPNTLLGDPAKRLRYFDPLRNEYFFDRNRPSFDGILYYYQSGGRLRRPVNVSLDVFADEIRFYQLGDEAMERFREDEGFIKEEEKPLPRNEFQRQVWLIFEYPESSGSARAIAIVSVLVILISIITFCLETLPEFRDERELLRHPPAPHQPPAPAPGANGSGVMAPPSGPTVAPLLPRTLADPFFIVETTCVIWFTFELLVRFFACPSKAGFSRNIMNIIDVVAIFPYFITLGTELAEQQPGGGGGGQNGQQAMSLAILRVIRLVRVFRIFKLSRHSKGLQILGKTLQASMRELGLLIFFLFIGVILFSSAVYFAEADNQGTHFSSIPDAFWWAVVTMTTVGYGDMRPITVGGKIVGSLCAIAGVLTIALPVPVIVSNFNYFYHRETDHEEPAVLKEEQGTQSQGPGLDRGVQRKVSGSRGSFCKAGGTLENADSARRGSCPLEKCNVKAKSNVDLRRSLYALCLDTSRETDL

Compound `CC1=C(S(=O)(=O)N2CCCC2)C(c2ccc(Cl)c(Cl)c2)n2nc(C(F)(F)F)cc2N1` (single isomer, unassigned) [Example 59 Isomer 2, 7-(3,4-Dichlorophenyl)-5-methyl-6-(pyrrolidin-1-ylsulfonyl)-2-(trifluoromethyl)-4,7-dihydropyrazolo[1,5-a]pyrimidine] has a Kv1.5% inhibition of 86.4%.
With `CC1=C(S(=O)(=O)c2ccccc2)C(c2ccc(Cl)c(F)c2)n2nc(C(F)(F)F)cc2N1` (single isomer, unassigned) [Example 33 Isomer 1, 7-(4-Chloro-3-fluorophenyl)-5-methyl-6-(phenylsulfonyl)-2-(trifluoromethyl)-4,7-dihydropyrazolo[1,5-a]pyrimidine] the inhibition at 0.3 µM was 75.5%.
In the case of `CC1=C(S(=O)(=O)N2CCCC2)C(c2ccc(Cl)c(Cl)c2)n2nc(C)cc2N1` (single isomer, unassigned) [Example 53 Isomer 2, 7-(3,4-Dichlorophenyl)-2,5-dimethyl-6-(pyrrolidin-1-ylsulfonyl)-4,7-dihydropyrazolo[1,5-a]pyrimidine], the Kv1.5% inhibition is reported as 54.7%.
In the case of `CC1=C(S(=O)(=O)c2ccccc2)C(c2ccc(Cl)c(F)c2)n2nc(C)cc2N1` (single isomer, unassigned) [Example 7 Isomer 2, 7-(4-Chloro-3-fluorophenyl)-2,5-dimethyl-6-(phenylsulfonyl)-4,7-dihydropyrazolo[1,5-a]pyrimidine], the Kv1.5% inhibition is reported as 32.4%.
In the case of `CC1=C(S(=O)(=O)NC(C)(C)C)C(c2ccc(Cl)cc2)n2nc(C(F)(F)F)cc2N1` (single isomer, unassigned) [Example 57 Isomer 1, N-tert-Butyl-7-(4-chlorophenyl)-5-methyl-2-(trifluoromethyl)-4,7-dihydropyrazolo[1,5-a]pyrimidine-6-sulfonamide], the inhibition at 0.3 µM is reported as 48.6%.
`CC1=C(C(=O)N(C)S(=O)(=O)c2ccc(F)cc2)C(c2ccc(Cl)c(Cl)c2)n2nc(C)cc2N1` (single isomer, unassigned) [Example 80 Isomer 1, 7-(3,4-Dichlorophenyl)-N-(4-fluorophenylsulfonyl)-N,2,5-trimethyl-4,7-dihydropyrazolo[1,5-a]pyrimidine-6-carboxamide] showed a Kv1.5% inhibition of 37%.
Work on `CC1=C(S(=O)(=O)C2CCCCC2)C(c2ccc(Cl)cc2)n2nc(C(F)(F)F)cc2N1` (single isomer, unassigned) [Example 29 Isomer 2, 7-(4-Chlorophenyl)-6-(cyclohexylsulfonyl)-5-methyl-2-(trifluoromethyl)-4,7-dihydropyrazolo[1,5-a]pyrimidine] yielded an inhibition at 0.3 µM of 87.9%.
In the case of `CC1=C(S(=O)(=O)NC(C)(C)C)C(c2ccc(Cl)c(Cl)c2)n2nc(C(F)(F)F)cc2N1` (single isomer, unassigned) [Example 58 Isomer 1, N-tert-Butyl-7-(3,4-dichlorophenyl)-5-methyl-2-(trifluoromethyl)-4,7-dihydropyrazolo[1,5-a]pyrimidine-6-sulfonamide], the inhibition at 0.3 µM is reported as 42.9%.
Work on `COc1cccc(S(=O)(=O)C2=C(C)Nc3cc(C(F)(F)F)nn3C2c2ccc(C)c(F)c2)c1` (single isomer, unassigned) [Example 41 Isomer 2, 7-(3-Fluoro-4-methylphenyl)-6-(3-methoxyphenylsulfonyl)-5-methyl-2-(trifluoromethyl)-4,7-dihydropyrazolo[1,5-a]pyrimidine] yielded a Kv1.5% inhibition of 85.8%.
`COc1ccc(S(=O)(=O)C2=C(C)Nc3cc(C)nn3C2c2nc3ccccc3n2C)cc1` (single isomer, unassigned) [Example 23 Isomer 2, 6-(4-Methoxyphenylsulfonyl)-2,5-dimethyl-7-(1-methyl-1H-benzo[d]imidazol-2-yl)-4,7-dihydropyrazolo[1,5-a]pyrimidine] gave a Kv1.5% inhibition of 16.6%.
Work on `CC1=C(S(=O)(=O)N2CCCC2)C(c2ccc(Cl)c(Cl)c2)n2nc(C(F)(F)F)cc2N1` (single isomer, unassigned) [Example 59 Isomer 1, 7-(3,4-Dichlorophenyl)-5-methyl-6-(pyrrolidin-1-ylsulfonyl)-2-(trifluoromethyl)-4,7-dihydropyrazolo[1,5-a]pyrimidine] yielded an inhibition at 0.3 µM of 89.8%.
`CC1=C(S(=O)(=O)N2CCCC2)C(c2cc3ccccc3n2C)n2nc(C(F)(F)F)cc2N1` (racemic) [Example 71, 5-Methyl-7-(1-methyl-1H-indol-2-yl)-6-(pyrrolidin-1-ylsulfonyl)-2-(trifluoromethyl)-4,7-dihydropyrazolo[1,5-a]pyrimidine] gave an inhibition at 0.3 µM of 41%.
Compound `CC1=C(C(=O)N2CCCCS2(=O)=O)C(c2ccc(Cl)c(Cl)c2)n2nc(C)cc2N1` (single isomer, unassigned) [Example 84 Isomer 1] has a Kv1.5% inhibition of 19%.
Work on `CC1=C(S(=O)(=O)c2ccc(C)cc2)C(c2ccc(Cl)c(Cl)c2)n2nc(C)cc2N1` (single isomer, unassigned) [Example 5 Isomer 2, 7-(3,4-Dichlorophenyl)-2,5-dimethyl-6-tosyl-4,7-dihydropyrazolo[1,5-a]pyrimidine] yielded an IC50 of 131 nM.
Work on `CC1=C(S(=O)(=O)N2CCN(c3ccccc3)CC2)C(c2ccc(Cl)c(Cl)c2)n2nc(C(F)(F)F)cc2N1` (racemic) [Example 70, 7-(3,4-Dichlorophenyl)-5-methyl-6-(4-phenylpiperazin-1-ylsulfonyl)-2-(trifluoromethyl)-4,7-dihydropyrazolo[1,5-a]pyrimidine] yielded an inhibition at 0.3 µM of 26%.
`CC1=C(C(=O)N(C)S(=O)(=O)c2c(C)noc2C)C(c2ccc(Cl)c(Cl)c2)n2nc(C(F)(F)F)cc2N1` (single isomer, unassigned) [Example 95 Isomer 1, 7-(3,4-Dichlorophenyl)-N-(3,5-dimethylisoxazol-4-ylsulfonyl)-N,5-dimethyl-2-(trifluoromethyl)-4,7-dihydropyrazolo[1,5-a]pyrimidine-6-carboxamide] was tested, and the inhibition at 0.3 µM was 91%.
In the case of `CC1=C(S(=O)(=O)N2CCCCC2)C(c2ccc(Cl)c(Cl)c2)n2nc(C(F)(F)F)cc2N1` (single isomer, unassigned) [Example 65 Isomer 1, 7-(3,4-Dichlorophenyl)-5-methyl-6-(piperidin-1-ylsulfonyl)-2-(trifluoromethyl)-4,7-dihydropyrazolo[1,5-a]pyrimidine], the inhibition at 0.3 µM is reported as 81%.
In the case of `CC1=C(S(=O)(=O)c2ccccc2)C(c2ccc3c(c2)OCO3)n2nc(C)cc2N1` (racemic) [Example 6, 7-(Benzo[d][1,3]dioxol-5-yl)-2,5-dimethyl-6-(phenylsulfonyl)-4,7-dihydropyrazolo[1,5-a]pyrimidine], the inhibition at 0.3 µM is reported as 6.1%.
With `CCN(C(=O)C1=C(C)Nc2cc(C(F)(F)F)nn2C1c1ccc(Cl)c(Cl)c1)S(=O)(=O)c1ccc(Cl)cc1` (single isomer, unassigned) [Example 93 Isomer 2, N-(4-Chlorophenylsulfonyl)-7-(3,4-dichlorophenyl)-N-ethyl-5-methyl-2-(trifluoromethyl)-4,7-dihydropyrazolo[1,5-a]pyrimidine-6-carboxamide] the Kv1.5% inhibition was 27%.
Work on `CC1=C(S(=O)(=O)Cc2ccccc2)C(c2ccc(Cl)c(Cl)c2)n2nc(C(F)(F)F)cc2N1` (racemic) [Example 16, 6-(Benzylsulfonyl)-7-(3,4-dichlorophenyl)-5-methyl-2-(trifluoromethyl)-4,7-dihydropyrazolo[1,5-a]pyrimidine] yielded an inhibition at 0.3 µM of 37.2%.
For `CC1=C(C(=O)N(C)S(=O)(=O)c2ccc3ccc(Cl)cc3c2)C(c2ccc(Cl)c(Cl)c2)n2nccc2N1` (racemic) [Example 76, N-(7-Chloronaphthalen-2-ylsulfonyl)-7-(3,4-dichlorophenyl)-N,5-dimethyl-4,7-dihydropyrazolo[1,5-a]pyrimidine-6-carboxamide], the inhibition at 0.3 µM was 38%.
For `CCN(C(=O)C1=C(C)Nc2cc(C)nn2C1c1ccc(Cl)c(Cl)c1)S(=O)(=O)c1c(C)noc1C` (single isomer, unassigned) [Example 97 Isomer 2, 7-(3,4-Dichlorophenyl)-N-(3,5-dimethylisoxazol-4-ylsulfonyl)-N-ethyl-2,5-dimethyl-4,7-dihydropyrazolo[1,5-a]pyrimidine-6-carboxamide], the Kv1.5% inhibition was 50%.
Work on `CC1=C(S(=O)(=O)NCc2ccccc2)C(c2ccc(Cl)c(Cl)c2)n2nc(C(F)(F)F)cc2N1` (single isomer, unassigned) [Example 56 Isomer 2, N-Benzyl-7-(3,4-dichlorophenyl)-5-methyl-2-(trifluoromethyl)-4,7-dihydropyrazolo[1,5-a]pyrimidine-6-sulfonamide] yielded a Kv1.5% inhibition of 37.5%.
Work on `CC1=C(S(=O)(=O)NCc2ccccc2)C(c2ccc(Cl)c(Cl)c2)n2nc(C(F)(F)F)cc2N1` (single isomer, unassigned) [Example 56 Isomer 1, N-Benzyl-7-(3,4-dichlorophenyl)-5-methyl-2-(trifluoromethyl)-4,7-dihydropyrazolo[1,5-a]pyrimidine-6-sulfonamide] yielded an inhibition at 0.3 µM of 50%.
Compound `COc1ccccc1S(=O)(=O)C1=C(C)Nc2cc(C(F)(F)F)nn2C1c1ccc(Cl)cc1` (single isomer, unassigned) [Example 46 Isomer 2, 7-(4-Chlorophenyl)-6-(2-methoxyphenylsulfonyl)-5-methyl-2-(trifluoromethyl)-4,7-dihydropyrazolo[1,5-a]pyrimidine] has a Kv1.5% inhibition of 74.7%.
`CC1=C(S(=O)(=O)c2ccc(Cl)cc2)C(c2ccccc2)n2nc(C(F)(F)F)cc2N1` (single isomer, unassigned) [Example 35 Isomer 1, 6-(4-Chlorophenylsulfonyl)-5-methyl-7-phenyl-2-(trifluoromethyl)-4,7-dihydropyrazolo[1,5-a]pyrimidine] gave an IC50 of 277 nM.
`CC1=C(S(=O)(=O)c2ccc(Cl)cc2)C(c2ccc(Cl)cc2)n2nc(C(F)(F)F)cc2N1` (single isomer, unassigned) [Example 31 Isomer 1, 7-(4-Chlorophenyl)-6-(4-chlorophenylsulfonyl)-5-methyl-2-(trifluoromethyl)-4,7-dihydropyrazolo[1,5-a]pyrimidine] showed an inhibition at 0.3 µM of 82.7%.
In the case of `CC1=C(S(=O)(=O)c2ccccc2)C(c2ccc(Cl)c(Cl)c2)n2nc(C)cc2N1` (single isomer, unassigned) [Example 3 Isomer 1, 7-(3,4-Dichlorophenyl)-2,5-dimethyl-6-(phenylsulfonyl)-4,7-dihydropyrazolo[1,5-a]pyrimidine], the IC50 is reported as 41 nM.
